Where two headings read alike, the source gives them in different places.
How the values were obtained:
MCF-7 [1] = assay: MTT cell viability assay, MCF-7; format: cell-based, human; details: for IC50: Homo sapiens
Procedure: (§1) MTT assays were performed as previously described. […] After incubation time, medium was replaced by MTT (solution of 5 mg/mL 3-(4,5-dimethylthiazol-2-yl)-2,5-diphenyl-tetrazoliumbromidin in phosphate buffered saline, Serva, Heidelberg, Germany).

T47D [2] = assay: MTT cell viability assay, T47D; format: cell-based, human; details: for IC50: Homo sapiens, T47D
Procedure: as §1

MDA-MB-231 = assay: MTT cell viability assay, MDA-MB-231; format: cell-based, human; details: for IC50: Homo sapiens
Procedure: MTT assays were performed as previously described. Cell numbers plated differed depending on each incubation time: MDA-MB-231 5000 c/w, MCF-7 5000 c/w (72 h) and 3000 c/w (120 h), T-47D 10,000 c/w (72 h) and 5000 c/w /120 h). After incubation time, medium was replaced by MTT (solution of 5 mg/mL 3-(4,5-dimethylthiazol-2-yl)-2,5-diphenyl-tetrazoliumbromidin in phosphate buffered saline, Serva, Heidelberg, Germany). After 10 min (MCF-7), 20 min (MDA-MB-231), and 30 min (T47D) and dissolving in DMSO (VWR, Langenfeld, Germany), absorbance was measured at 544 nm and 690 nm in a FLUOstar microplate reader (BMG LabTech, Offenburg, Germany).

MCF-7 [3] = assay: Cell proliferation by counting Hoechst 33342-stained nuclei, MCF-7; format: cell-based, human; details: 1 µM, 72 h
Procedure: (§2) Figure 3 Cell proliferation of MCF-7 (a) and T47D cells (b) measured via Hoechst 33342 staining. […] Shown is one representative experiment out of a series of at least three experiments each performed with 3 replicates. Data are mean ± SD. Statistical comparison was performed using a t-test. Levels of significance: ** (p ≤ 0.01); **** (p ≤ 0.0001). Exe = exemestane. (R)-LA = (R)-α-lipoic acid.

T47D [4] = assay: Cell proliferation by counting Hoechst 33342-stained nuclei, T47D; format: cell-based, human; details: 1 µM, 72 h
Procedure: as §2

MCF-7 [5] = assay: Long-term (10 days) live/dead proliferation assay, calcein AM and Hoechst 33342, MCF-7; format: cell-based, human; details: 1 µM exemestane, 1 mM (R)-α-lipoic acid
Procedure: (§3) Cells were seeded on day one in 96-well plates. […] Then, cells were stained with calcein AM (Millipore Corporation, Billerica, MA, USA) and Hoechst 33342 (Tocris Bioscience, Bristol, UK) for 30 min and fluorescence images monitored by Leica DMi8 Thunder Imager (Leica Microsystems CMS GmbH, Wetzlar, Germany). Five images per well were monitored randomly. Calcein AM- and Hoechst 33342-stained area of the images (i.e., live proliferating cells) were evaluated.

T47D [6] = assay: Long-term (10 days) live/dead proliferation assay, calcein AM and Hoechst 33342, T47D; format: cell-based, human; details: 1 µM exemestane, 1 mM (R)-α-lipoic acid
Procedure: as §3

[7] = tested on: caspase 3/7 in MCF-7 cells; assay: Caspase 3/7 activation assay, MCF-7; format: cell-based, human; details: 24 h; 1 µM exemestane, 0.5 mM or 1 mM (R)-α-lipoic acid
Procedure: (§4) To analyze the compound-induced activation of capases 3 and 7, the CellEvent caspase 3/7 green detection reagent (Thermo Scientific, Wesel, Germany) was used according to the manufacturer’s instructions. […] After 24 h incubation, medium was removed, and cells were stained with 50 µL of CellEvent caspase 3/7 green detection reagent (2 µM in PBS supplemented with 5% heat-inactivated FBS). Cells were incubated for 30 min at 37 °C in a humidified incubator before imaging by using the Thermo Fisher ArrayScan XTI high content screening (HCS) system with a 10× magnification (Thermo Scientific). Hoechst 33342 was added for nuclei staining.

[8] = tested on: caspase 3/7 in T47D cells; assay: Caspase 3/7 activation assay, T47D; format: cell-based, human; details: 24 h; 1 µM exemestane, 0.5 mM or 1 mM (R)-α-lipoic acid
Procedure: as §4

MCF-7 [9] = assay: Immunoblotting, MCF-7; format: cell-based, human; details: 48 h; 1 mM (R)-α-lipoic acid, 1 µM exemestane
Procedure: (§5) A quantity of 20 or 40 µg of total protein as well as, from PageRuler Prestained Protein Ladder, 10–180 kDA (Thermo Scientific, Wesel, Germany), were resolved by SDS-Page (12% polyacrylamide gel) and transferred to polyvinylidene fluoride membrane (Millipore Corporation, Billerica, MA, USA). Blots were incubated with primary antibodies against acetylated a -tubulin (Cat. No. sc-23950), a -tubulin (Cat. No. sc-8035) (Santa Cruz Biotechnology, Heidelberg, Germany), acetyl histone h3 (Cat. No. 39140) and histone H3 (Cat. No. NB100-1669), ß-actine (Cat. No. sc-47778), p21 (AF1047), c-myk (Cat. No. MAB3696), APAF1 (Cat. No. MAB868), BIM (Cat. No. NBP1-76936), FOXO1 (Cat. No. C29H4), BCL-2 (Cat. No. AF810), and survivin (Cat. No. AF886). After another one-hour incubation with the appropriate HRP-conjugated secondary antibody, proteins were visualized by Intas Imager (Intas, Göttingen, Germany) using luminol reagent (Santa Cruz Biotechnology, Heidelberg, Germany).

T47D [10] = assay: Immunoblotting, T47D; format: cell-based, human; details: 48 h; 1 mM (R)-α-lipoic acid, 1 µM exemestane
Procedure: as §5

MCF-7 cells = tested on: MCF-7 cells; parameters: method as in PMID 25738757; details: ref [30]; read-out: IC50 in MCF-7 cells, literature; cited from earlier work

With `C=C1C[C@@H]2[C@H](CC[C@]3(C)C(=O)CC[C@@H]23)[C@@]2(C)C=CC(=O)C=C12` [exemestane] the “inhibition of cell viability, MCF-7” value (MCF-7 [1]; 1 µM alone, 120 h MTT) was 10.2%, the “increase in potency by prolongation of incubation time, MCF-7” value (MCF-7 [1]; 120 h versus 72 h MTT) was 1.8 fold and the IC50 (MCF-7 [1]; MCF7, 72 h, read-out: IC50 MCF-7, 72 h MTT assay) was 29.1 ± 1.3 µM. For the same molecule, the IC50 (MCF-7 [1]; MCF7, 72 h, read-out: IC50 of exemestane, MCF-7 (Figure 2a)) was 42.6 µM, the IC50 (MCF-7 [1]; MCF7, 120 h, read-out: IC50 of exemestane, MCF-7 (Figure 4a)) was 16.9 µM and the IC50 (MCF-7 [1]; MCF7, 120 h, IC50 ± SEM, read-out: IC50 MCF-7, 120 h MTT assay) was 16.1 ± 0.84 µM. For the same molecule, the “inhibition of cell viability, T47D” value (T47D [2]; 1 µM alone, 120 h MTT) was “no”, the “increase in potency by prolongation of incubation time, T47D” value (T47D [2]; 120 h versus 72 h MTT) was 1.8 fold and the IC50 (T47D [2]; 72 h, read-out: IC50 T-47D, 72 h MTT assay) was 50.6 ± 2.04 µM. The IC50 (T47D [2]; 72 h, read-out: IC50 of exemestane, T-47D (Figure 2b)) was 39.2 µM, the IC50 (T47D [2]; 120 h, read-out: IC50 of exemestane, T-47D (Figure 4b)) was 24.7 µM and the IC50 (T47D [2]; 120 h, IC50 ± SEM, read-out: IC50 T-47D, 120 h MTT assay) was 28.7 ± 0.75 µM. The “less potent in MDA-MB-231 compared to MCF-7” value (MDA-MB-231; 72 h MTT IC50 ratio) was 3 fold, the “less potent in MDA-MB-231 compared to T47D” value (MDA-MB-231; 72 h MTT IC50 ratio) was 1.8 fold and the “increase in potency by prolongation of incubation time, MDA-MB-231” value (MDA-MB-231; 120 h versus 72 h MTT) was 1.7 fold. The IC50 (MDA-MB-231; MDA-MB-231, 72 h, read-out: IC50 MDA-MB-231, 72 h MTT assay) was 89.4 ± 2.86 µM, the IC50 (MDA-MB-231; MDA-MB-231, 120 h, IC50 ± SEM, read-out: IC50 MDA-MB-231, 120 h MTT assay) was 53.3 ± 3.62 µM and the “decrease of the number of nuclei, MCF-7” value (MCF-7 [3]) was “around 37%”. The “decrease of the number of nuclei, T47D” value (T47D [4]) was “around 37%”, the “proliferation and doubling time over 10 days, MCF-7” value (MCF-7 [5]) was “difference between the untreated control and 1 µM exemestane is small” and the “proliferation and doubling time over 10 days, T47D” value (T47D [6]) was “doubling time was not different between exemestane treatment and untreated condition”. For the same molecule, the “caspase 3/7 activation, MCF-7” value [7] was “no caspase 3/7 activation”, the “caspase 3/7 activation, T47D” value [8] was “no caspase 3/7 activation” and the “expression of survivin and c-myk, MCF-7” value (MCF-7 [9]) was “not affected”. For the same molecule, the “expression of survivin and c-myk, T47D” value (T47D [10]) was “not affected” and the IC50 (MCF-7 cells) was 30 µM.
